{"source": "patent US11512054B2", "about": "“Pesticidal compounds” (BASF SE, priority 2017, dated 2022)", "format_in_all_cases": "in vivo", "key": {"[1]": {"test_system": "boll weevil (Anthonomus grandis)", "assay": "Action on boll weevil, eggs on insect diet in 96-well microtiter plates", "conditions": "120 h, egg and larval mortality after 5 days, read-out: mortality in comparison with untreated controls", "protocol": "For evaluating control of boll weevil (Anthonomus grandis) the test unit consisted of 96-well-microtiter plates containing an insect diet and 5-10 A. grandis eggs.\nThe compounds were formulated using a solution containing 75% (v/v) water and 25% (v/v) DMSO. Different concentrations of formulated compounds were sprayed onto the insect diet at 5 μl, using a custom built micro atomizer, at two replications.\nAfter application, microtiter plates were incubated at about 25+1° C. and about 75+5% relative humidity for 5 days. Egg and larval mortality was then visually assessed."}, "[2]": {"test_system": "yellow fever mosquito (Aedes aegypti)", "assay": "whole plant or invertebrate", "conditions": "48 h, larval mortality visually assessed after 2 days, read-out: mortality in comparison with untreated controls", "protocol": "For evaluating control of yellow fever mosquito (Aedes aegypti) the test unit consisted of 96-well-microtiter plates containing 200 μl of tap water per well and 5-15 freshly hatched A. aegypti larvae.\nThe active compounds or mixtures were formulated using a solution containing 75% (v/v) water and 25% (v/v) DMSO. Different concentrations of formulated compounds or mixtures were sprayed onto the insect diet at 2.5 μl, using a custom built micro atomizer, at two replications. For experimental mixtures in these tests identical volumes of both mixing partners at the desired concentrations respectively, were mixed together.\nAfter application, microtiter plates were incubated at 28±1° C., 80±5% RH for 2 days. Larval mortality was then visually assessed."}, "[3]": {"test_system": "Diamond Back Moth (Plutella xylostella)", "assay": "Action on diamond back moth, cabbage leaf dip", "conditions": "foliar, 3rd instar larvae, 72 hours after treatment, read-out: mortality in comparison with untreated controls", "protocol": "The active compound is dissolved at the desired concentration in a mixture of 1:1 (v/v) distilled water:acetone. Surfactant (Kinetic® HV) is added at a rate of 0.01% (v/v). The test solution is prepared at the day of use.\nLeaves of cabbage were dipped in test solution and air-dried. Treated leaves were placed in petri dishes lined with moist filter paper and inoculated with ten 3rd instar larvae. Mortality was recorded 72 hours after treatment. Feeding damages were also recorded using a scale of 0-100%."}, "[4]": {"test_system": "Southern Armyworm (Spodoptera eridania), 2nd Instar Larvae", "assay": "Action on southern armyworm, sprayed lima bean plants", "conditions": "96 h, 2nd instar larvae on lima bean, 4 days after treatment, read-out: mortality in comparison with untreated controls", "protocol": "The active compounds were formulated by a Tecan liquid handler in 100% cyclohexanone as a 10,000 ppm solution supplied in tubes. The 10,000 ppm solution was serially diluted in 100% cyclohexanone to make interim solutions. These served as stock solutions for which final dilutions were made by the Tecan in 50% acetone:50% water (v/v) into 10 or 20 ml glass vials. A nonionic surfactant (Kinetic®) was included in the solution at a volume of 0.01% (v/v). The vials were then inserted into an automated electrostatic sprayer equipped with an atomizing nozzle for application to plants/insects.\nLima bean plants (variety Sieva) were grown 2 plants to a pot and selected for treatment at the 1st true leaf stage. Test solutions were sprayed onto the foliage by an automated electrostatic plant sprayer equipped with an atomizing spray nozzle. The plants were dried in the sprayer fume hood and then removed from the sprayer. Each pot was placed into perforated plastic bags with a zip closure. About 10 to 11 armyworm larvae were placed into the bag and the bags zipped closed. Test plants were maintained in a growth room at about 25° C. and about 20-40% relative humidity for 4 days, avoiding direct exposure to fluorescent light (24 hour photoperiod) to prevent trapping of heat inside the bags. Mortality and reduced feeding were assessed 4 days after treatment, compared to untreated control plants."}, "[5]": {"test_system": "Orchid Thrips (Dichromothrips corbetti)", "assay": "Action on orchid thrips, floral-immersion technique", "conditions": "adult thrips, 72 hours after treatment, read-out: mortality in comparison with untreated controls", "protocol": "Dichromothrips corbetti adults used for bioassay were obtained from a colony maintained continuously under laboratory conditions. For testing purposes, the test compound is diluted in a 1:1 mixture of acetone:water (vol:vol), plus Kinetic® HV at a rate of 0.01% v/v.\nThrips potency of each compound was evaluated by using a floral-immersion technique. All petals of individual, intact orchid flowers were dipped into treatment solution and allowed to dry in Petri dishes. Treated petals were placed into individual re-sealable plastic along with about 20 adult thrips. All test arenas were held under continuous light and a temperature of about 28° C. for duration of the assay. After 3 days, the numbers of live thrips were counted on each petal. The percent mortality was recorded 72 hours after treatment."}, "[6]": {"test_system": "tobacco budworm (Heliothis virescens)", "assay": "Action on tobacco budworm, eggs on insect diet in 96-well microtiter plates", "conditions": "120 h, egg and larval mortality after 5 days, read-out: mortality in comparison with untreated controls", "protocol": "For evaluating control of tobacco budworm (Heliothis virescens) the test unit consisted of 96-well-microtiter plates containing an insect diet and 15-25 H. virescens eggs.\nThe compounds were formulated using a solution containing 75% v/v water and 25% v/v DMSO. Different concentrations of formulated compounds were sprayed onto the insect diet at 10 μl, using a custom built micro atomizer, at two replications.\nAfter application, microtiter plates were incubated at about 28+1° C. and about 80+5% relative humidity for 5 days. Egg and larval mortality was then visually assessed."}, "[7]": {"test_system": "Silverleaf Whitefly (Bemisia argentifoli) (Adults)", "assay": "Action on silverleaf whitefly adults, sprayed cotton plants", "conditions": "Bemisia argentifolii, 72 h, 3 days after treatment, read-out: mortality in comparison with untreated controls", "protocol": "The active compounds were formulated by a Tecan liquid handler in 100% cyclohexanone as a 10,000 ppm solution supplied in tubes. The 10,000 ppm solution was serially diluted in 100% cyclohexanone to make interim solutions. These served as stock solutions for which final dilutions were made by the Tecan in 50% acetone:50% water (v/v) into 5 or 10 ml glass vials. A nonionic surfactant (Kinetic®) was included in the solution at a volume of 0.01% (v/v). The vials were then inserted into an automated electrostatic sprayer equipped with an atomizing nozzle for application to plants/insects.\nCotton plants at the cotyledon stage (one plant per pot) were sprayed by an automated electrostatic plant sprayer equipped with an atomizing spray nozzle. The plants were dried in the sprayer fume hood and then removed from the sprayer. Each pot was placed into a plastic cup and about 10 to 12 whitefly adults (approximately 3-5 days old) were introduced. The insects were collected using an aspirator and a nontoxic Tygon® tubing connected to a barrier pipette tip. The tip, containing the collected insects, was then gently inserted into the soil containing the treated plant, allowing insects to crawl out of the tip to reach the foliage for feeding. Cups were covered with a reusable screened lid. Test plants were maintained in a growth room at about 25° C. and about 20-40% relative humidity for 3 days, avoiding direct exposure to fluorescent light (24 hour photoperiod) to prevent trapping of heat inside the cup. Mortality was assessed 3 days after treatment, compared to untreated control plants."}}, "data": [{"compound": "CC(C)c1ccccc1N1C(=O)CS/C1=N\\N=C\\c1ccc2c(NC(=N)c3ccc(OC(F)(F)F)cc3)nn(C)c2c1", "note": "[Example C-39, N-[6-[(E)-[(Z)-[3-(2-isopropylphenyl)-4-oxo-thiazolidin-2-ylidene]hydrazono]methyl]-1-methyl-indazol-3-yl]-4-(trifluoromethoxy)benzamidine]", "values": [{"measurement": "mortality at 800 ppm", "setting": "[1]", "result": "≥ 75", "unit": "%"}, {"measurement": "mortality at 800 ppm", "setting": "[2]", "result": "≥ 50", "unit": "%"}, {"measurement": "mortality at 500 ppm", "setting": "[3]", "result": "≥ 75", "unit": "%"}, {"measurement": "mortality at 300 ppm", "setting": "[4]", "result": "≥ 75", "unit": "%"}, {"measurement": "mortality at 500 ppm", "setting": "[5]", "result": "≥ 75", "unit": "%"}, {"measurement": "mortality at 800 ppm", "setting": "[6]", "result": "≥ 75", "unit": "%"}, {"measurement": "mortality at 300 ppm", "setting": "[7]", "result": "≥ 75", "unit": "%"}]}, {"compound": "CC(C)c1ccccc1NC(=S)N/N=C/c1ccc2c(C(=N)Nc3ccc(OC(F)(F)F)cc3)nn(C)c2c1", "note": "[Example C-1, 1-(2-isopropylphenyl)-3-[(E)-[1-methyl-3-[N-[4(trifluoromethoxy)phenyl]carbamimidoyl]indazol-6-yl]methyleneamino]thiourea]", "values": [{"measurement": "mortality at 800 ppm", "setting": "[1]", "result": "≥ 75", "unit": "%"}, {"measurement": "mortality at 800 ppm", "setting": "[2]", "result": "≥ 50", "unit": "%"}, {"measurement": "mortality at 500 ppm", "setting": "[3]", "result": "≥ 75", "unit": "%"}, {"measurement": "mortality at 300 ppm", "setting": "[4]", "result": "≥ 75", "unit": "%"}, {"measurement": "mortality at 500 ppm", "setting": "[5]", "result": "≥ 75", "unit": "%"}, {"measurement": "mortality at 800 ppm", "setting": "[6]", "result": "≥ 75", "unit": "%"}, {"measurement": "mortality at 300 ppm", "setting": "[7]", "result": "≥ 75", "unit": "%"}]}, {"compound": "CSC(=N/N=C/c1ccc2c(C(=N)Nc3ccc(OC(F)(F)F)cc3)nn(C)c2c1)Nc1ccccc1C(C)C", "note": "[Example C-35, 1-(2-isopropylphenyl)-2-methyl-3-[(E)-[1-methyl-3-[N-[4-(trifluoromethoxy)phenyl]carbamimidoyl]indazol-6-yl]methyleneamino]isothiourea]", "values": [{"measurement": "mortality at 800 ppm", "setting": "[1]", "result": "≥ 75", "unit": "%"}, {"measurement": "mortality at 800 ppm", "setting": "[2]", "result": "≥ 50", "unit": "%"}, {"measurement": "mortality at 500 ppm", "setting": "[3]", "result": "≥ 75", "unit": "%"}, {"measurement": "mortality at 300 ppm", "setting": "[4]", "result": "≥ 75", "unit": "%"}, {"measurement": "mortality at 500 ppm", "setting": "[5]", "result": "≥ 75", "unit": "%"}, {"measurement": "mortality at 800 ppm", "setting": "[6]", "result": "≥ 75", "unit": "%"}, {"measurement": "mortality at 300 ppm", "setting": "[7]", "result": "≥ 75", "unit": "%"}]}, {"compound": "CC(C)c1ccccc1N1C(=O)CS/C1=N/N=C/c1ccc2c(C(=N)Nc3ccc(OC(F)(F)F)cc3)nn(C)c2c1", "note": "[Example C-2, 6-[(E)-[(E)-[3-(2-isopropylphenyl)-4-oxo-thiazolidin-2-ylidene]hydrazono]methyl]-1-methyl-N-[4-(trifluoromethoxy)phenyl]indazole-3-carboxamidine]", "values": [{"measurement": "mortality at 800 ppm", "setting": "[1]", "result": "≥ 75", "unit": "%"}, {"measurement": "mortality at 800 ppm", "setting": "[2]", "result": "≥ 50", "unit": "%"}, {"measurement": "mortality at 500 ppm", "setting": "[3]", "result": "≥ 75", "unit": "%"}, {"measurement": "mortality at 300 ppm", "setting": "[4]", "result": "≥ 75", "unit": "%"}, {"measurement": "mortality at 500 ppm", "setting": "[5]", "result": "≥ 75", "unit": "%"}, {"measurement": "mortality at 800 ppm", "setting": "[6]", "result": "≥ 75", "unit": "%"}, {"measurement": "mortality at 300 ppm", "setting": "[7]", "result": "≥ 75", "unit": "%"}]}, {"compound": "CC(C)c1ccccc1/N=C1\\SCC(=O)N1/N=C/c1ccc2c(C(N)=Nc3ccc(OC(F)(F)F)cc3)nsc2c1", "note": "[Example C-28, 6-[(E)-[(2Z)-2-(2-isopropylphenyl)imino-4-oxo-thiazolidin-3-yl]iminomethyl]-N′-[4-(trifluoromethoxy)phenyl]-1,2-benzothiazole-3-carboxamidine]", "values": [{"measurement": "mortality at 800 ppm", "setting": "[1]", "result": "≥ 75", "unit": "%"}, {"measurement": "mortality at 800 ppm", "setting": "[2]", "result": "≥ 50", "unit": "%"}, {"measurement": "mortality at 500 ppm", "setting": "[3]", "result": "≥ 75", "unit": "%"}, {"measurement": "mortality at 300 ppm", "setting": "[4]", "result": "≥ 75", "unit": "%"}, {"measurement": "mortality at 500 ppm", "setting": "[5]", "result": "≥ 75", "unit": "%"}, {"measurement": "mortality at 800 ppm", "setting": "[6]", "result": "≥ 75", "unit": "%"}, {"measurement": "mortality at 300 ppm", "setting": "[7]", "result": "≥ 75", "unit": "%"}]}, {"compound": "CC(C)c1ccccc1NC(=S)N/N=C/c1ccc2c(NC(=N)c3ccc(OC(F)(F)F)cc3)nn(C)c2c1", "note": "[Example C-38, 1-(2-isopropylphenyl)-3-[(E)-[1-methyl-3-[[4-(trifluoromethoxy)benzenecarboximidoyl]amino]indazol-6-yl]methyleneamino]thiourea]", "values": [{"measurement": "mortality at 800 ppm", "setting": "[1]", "result": "≥ 75", "unit": "%"}, {"measurement": "mortality at 800 ppm", "setting": "[2]", "result": "≥ 50", "unit": "%"}, {"measurement": "mortality at 500 ppm", "setting": "[3]", "result": "≥ 75", "unit": "%"}, {"measurement": "mortality at 300 ppm", "setting": "[4]", "result": "≥ 75", "unit": "%"}, {"measurement": "mortality at 500 ppm", "setting": "[5]", "result": "≥ 75", "unit": "%"}, {"measurement": "mortality at 800 ppm", "setting": "[6]", "result": "≥ 75", "unit": "%"}, {"measurement": "mortality at 300 ppm", "setting": "[7]", "result": "≥ 75", "unit": "%"}]}]}
